# In patent US20160166531A1, “METHODS AND COMPOSITIONS FOR TREATING CARDIOVASCULAR DISORDERS” (Zafgen, Inc., priority 2010, published 2016):
# Several values for one entry are separate records, joined by “and”; a condition that tells them apart may be missing. Equal entries are not always repeated.
# Experiments:
# PCSK9 = assay: Liver mRNA levels of PCSK9 in treated mice; format: in vivo; details: C57BL/6 mice, at day 3 and after (FIG. 5)
# Text: Liver mRNA levels of PCSK9 were examined in C57BL/6 mice treated with ZGN-201. FIG. 5 depicts the hepatic PCSK9 mRNA (% of vehicle control) vs. days of treatment with ZGN-201.
# FGF-21 = assay: R&D Systems Quantikine Mouse FGF-21 Immunoassay, plasma FGF-21 after ten days of treatment; format: in vivo
# Text: In Table 1, animals #1.1, 1.2, 1.3, 2.1, 2.2 and 2.3 were vehicle-treated and animal #3.1, 3.2, 3.3, 4.1, 4.2 and 4.3 were ZGN-201-treated. Sample 3.1 was above the level of quantification.
# FIG. 4 indicates the average (±SEM) plasma FGF-21 levels for all study groups.
# [1] = test system: C57BL/6 mice conditioned on a high fat diet; assay: Oral fumagillin in mice conditioned on a high fat diet (DIO); format: in vivo
# Text: Oral administration of the MetAP2 inhibitor fumagillin causes an increase in circulating ketone bodies, as measured by concentration of beta hydroxybutyrate, which indicates an increase in the breakdown of stored fat and activation of ketogenesis.
# total cholesterol [2] = assay: Total cholesterol in human subjects with elevated total cholesterol; format: in vivo; details: human subjects with initial fasting total cholesterol in excess of 180 mg/dl, twice weekly for four weeks, n=10, p=0.018 (FIG. 3)
# Description: Human subjects with initial fasting total cholesterol levels in excess of 180 mg/dl were administered Compound A twice weekly for a total of four weeks of treatment.
# thrombomodulin = assay: Thrombomodulin levels in obese patients; format: in vivo, human; details: obese patients of Example 6 (FIG. 7)
# Text: The expression of another cardiovascular risk marker, thrombomodulin, was examined in the patients described in Example 6. […] Similarly to Example 6, the reduction in thrombomodulin was independent of effects on metabolic parameters and body weight.
# [3] = test system: low density lipoprotein cholesterol (LDLc); details: obese patients of Example 6 (FIG. 8)
# Description: (§1) The compound was intravenously administered to each patient of a cohort (except for a placebo cohort) twice weekly for 26 days. Each of patients in the three non-placebo cohorts received either 0.1 mg/m^2 (cohort 1); 0.3 mg/m^2 (cohort 2); or 0.9 mg/m^2 (cohort 3) doses of the compound at the time of administration. The trial was conducted under the appropriate government and medical supervision.
# [4] = test system: apolipoprotein(a) (apoLp(a)); assay: Apolipoprotein(a) levels in obese patients; format: in vivo, human; details: obese patients of Example 6 (FIG. 9)
# Text: The expression of another cardiovascular risk marker, apolipoprotein(a) (apoLp(a)), was examined in the patients described in Example 6. […] Similarly to Example 6, the reduction in apoLp(a) was independent of effects on body weight.
# C-Reactive Protein (CRP) = assay: Serum C-Reactive Protein in obese patients, intravenous twice weekly for 26 days; format: in vivo, human
# Description: as §1
# total cholesterol [5] = assay: Total cholesterol in rats after four weeks of treatment; format: in vivo; set-up: Total cholesterol levels, Mean: unit not given here; details: for Total cholesterol levels, Mean: vehicle mean 86.7
# Description: Rats were administered 1 or 3 mg/kg fumagillol daily for a total of four weeks of treatment.
# [6] = 1 mg/kg po daily for four weeks
# [7] = 3 mg/kg po daily for four weeks
compound,measurement,setting,value
CO[C@@H]1[C@H](OC(=O)/C=C/C=C/C=C/C=C/C(=O)O)CC[C@]2(CO2)[C@H]1[C@@]1(C)O[C@@H]1CC=C(C)C [fumagillin],hepatic PCSK9 mRNA (% of vehicle control),PCSK9,reduced PCSK9 expression
same,"FGF-21 absolute numbers, Average of duplicates (single animals)","FGF-21; animals 3.1 to 4.3, one value per animal, listed as ZGN-201",AQL and 2248.25 pg/ml and 2514.66 pg/ml and 2166.60 pg/ml and 1194.64 pg/ml and 3597.58 pg/ml
same,FGF-21 MEAN of treated group,FGF-21; vehicle group mean 991.47,2344.34 pg/mL
same,hydroxybutyrate concentration at longer time points,"[1]; DIO C57BL/6 mice, diet admixture 1 mg/kg daily for 250 days (FIG. 1C)",Increased hydroxybutyrate concentration persisted
same,beta hydroxybutyrate concentrations,"[1]; DIO C57BL/6 mice, oral gavage 0.3 or 3 mg/kg daily for 10 days (FIG. 1A)",increase
same,free fatty acid concentration,"[1]; DIO C57BL/6 mice, oral gavage 0.3 or 3 mg/kg daily for 10 days (FIG. 1B)",without an increase
same,sensitivity to insulin,[1]; mice on a high fat diet,normalizes
same,"Fasted glucose and insulin levels, insulin-glucose product","[1]; mice on high fat diet, 1 mg/kg fumagillin, versus age-matched lean mice and untreated DIO mice (FIG. 2A-2C)",more similar to that of age-matched lean mice than that of untreated mice on a high fat diet
"CO[C@@H]1[C@H](OC(=O)C=Cc2ccc(OCCN(C)C)cc2)CC[C@]2(CO2)[C@H]1[C@@]1(C)O[C@@H]1CC=C(C)C [Compound A, O-(4-dimethylaminoethoxycinnamoyl)fumagillol]",Total cholesterol levels,total cholesterol [2],reduced
CO[C@@H]1[C@H](OC(=O)C=Cc2ccc(OCCN(C)C)cc2)CC[C@]2(CO2)[C@H]1[C@@]1(C)O[C@@H]1CC=C(C)C.O=C(O)C(=O)O [6-O-(4-dimethylaminoethoxyl)cinnamoyl fumagillol oxalate],thrombomodulin levels,thrombomodulin,decreases
same,LDL-c levels,[3],decreases
same,apoLp(a) levels,[4],decreases
same,subjects with elevated CRP concentrations (above 3.0 μg/ml) reduced to levels within the normal range,"C-Reactive Protein (CRP); 0.9 mg/m^2 dose level, by the 26th day of treatment, p<0.01",six out of eight
same,levels of C-Reactive Protein (CRP) in patients' serum,"C-Reactive Protein (CRP); obese patients, iv twice weekly for 26 days, 0.1, 0.3 or 0.9 mg/m^2 (FIG. 6)",decrease
"CO[C@@H]1[C@H](O)CC[C@]2(CO2)[C@H]1[C@@]1(C)O[C@@H]1CC=C(C)C [Fumagillol, fumagillol]","Total cholesterol levels, % of vehicle",total cholesterol [5]; [6],76.5%
same,"Total cholesterol levels, Mean",total cholesterol [5]; [6],66.3
same,"Total cholesterol levels, % of vehicle",total cholesterol [5]; [7],63.7%
same,"Total cholesterol levels, Mean",total cholesterol [5]; [7],55.2
